Like-named read-outs stand apart in the source and are kept apart here.
Experiment: First-in-human clinical study: plasma and whole blood PK of INX-315 (oral QD, ASD tablet)
Type: in vivo
Details: human, plasma, plasma
From the text: All INX-315 tablets were taken at approximately the same time(s) each day.
Samples will also be collected pre-dose on Cycle 1 Days 2, 8, 16, and Day 22, and pre-dose on Day 1 of each subsequent cycle.
Standard non-compartmental PK parameters were estimated.
Geometric mean and geometric CV % will be included in the summary statistics.
PK parameters will be summarized descriptively by dosing cohort. AUC and Cmax values will also be presented in scatter plots. Dose proportionality will be assessed for AUC and Cmax using a power model. The 90% CI of the slope for each PK parameter will be estimated from the model and presented in a summary table.
Cohort 1 enrollment of 6 subjects dosed at 100 mg oral QD was completed in October of 2023.
Patients were upgraded to the 200 mg QD dose level and PK/PD plasma parameters were measured (FIG. 18A).
Patients were administered the 200 mg QD and 300 mg QD dose levels and PK/PD plasma parameters were measured.

NS(=O)(=O)c1ccc(Nc2ncc3cc4n(c3n2)C2(CCCCC2)C(=O)NN4)cc1 [INX-315]
concentration at 15 day (oral, 100 mg, 100 mg QD, Day 15 observed, mean of first two patients, read-out: Cmin^free): 9.2 ng/mL
concentration at 12 h (oral, 100 mg, 100 mg QD, first dose level (Table 5), read-out: C12 hr): 252 ng/mL
concentration at 24 h (oral, 100 mg, 100 mg QD, first dose level (Table 5), read-out: C24 hr): 177 ng/mL
Cmax (oral, 100 mg, 100 mg QD, first dose level (Table 5), read-out: Cmax): 388 ng/mL
AUC (oral, 100 mg, 100 mg QD, removing esophageal cancer patient with low exposure, read-out: Total Area (adjusted AUC)): 2740 ng·h/mL
concentration at 0.5 h (oral, 200 mg, 200 mg QD (n = 2), 0.5 hr): 69.6 ng/mL
concentration at 1 h (oral, 200 mg, 200 mg QD (n = 2), 1.0 hr): 109 ng/mL
concentration at 2 h (oral, 200 mg, 200 mg QD (n = 2), 2.0 hr): 246 ng/mL
concentration at 6 h (oral, 200 mg, 200 mg QD (n = 2), 6.0 hr): 343 ng/mL
concentration at 8 h (oral, 200 mg, 200 mg QD (n = 2), 8.0 hr): 374 ng/mL
concentration at 24 h (oral, 200 mg, 200 mg QD (n = 2), […], read-out: Mean plasma concentration): 141 ng/mL
AUC (oral, 200 mg, 200 mg QD (n = 2), read-out: Total Area (AUC)): 6260 ng·h/mL
AUC(0-t) (oral, 200 mg, 200 mg QD, Day 1, Cohort 2, read-out: AUClast, geometric mean): 8940 ng·h/mL
AUC(0-t) (oral, 200 mg, 200 mg QD, Day 1, Cohort 2, read-out: AUClast, median): 7970 ng·h/mL
Cmax (oral, 200 mg, 200 mg QD, Day 1, Cohort 2, read-out: Cmax, geometric mean): 590 ng/mL
Cmax (oral, 200 mg, 200 mg QD, Day 1, Cohort 2, read-out: Cmax, median): 577 ng/mL
Tmax (oral, 200 mg, 200 mg QD, Day 1, Cohort 2, read-out: Tmax, median): 8 h
Tmax (oral, 200 mg, 200 mg QD, Day 1, individual subjects, read-out: Tmax): 8 h
half-life (oral, 200 mg, 200 mg QD, Day 1, individual subjects, read-out: t1/2 (converted)): 18.1 h
AUC(0-t) (oral, 200 mg, 200 mg QD, Day 15, Cohort 2, read-out: AUClast, geometric mean): 12200 ng·h/mL
AUC(0-t) (oral, 200 mg, 200 mg QD, Day 15, Cohort 2, read-out: AUClast, median): 13700 ng·h/mL
Cmax (oral, 200 mg, 200 mg QD, Day 15, Cohort 2, read-out: Cmax, geometric mean): 922 ng/mL
Cmax (oral, 200 mg, 200 mg QD, Day 15, Cohort 2, read-out: Cmax, median): 888 ng/mL
Tmax (oral, 200 mg, 200 mg QD, Day 15, Cohort 2, read-out: Tmax, median): 6 h
half-life (oral, 200 mg, 200 mg QD, Day 15, Cohort 2, read-out: t1/2, geometric mean (converted)): 10.8 h
half-life (oral, 200 mg, 200 mg QD, Day 15, Cohort 2, read-out: t1/2, median (converted)): 10.5 h
Cmax (oral, 200 mg, 200 mg QD, Day 15, individual subjects, read-out: Cmax): 779 ng/mL
half-life (oral, 200 mg, 200 mg QD, Day 15, individual subjects, read-out: t1/2 (converted)): 8.36 h
AUC (oral, 300 mg, Cohort 3 (300 mg QD), Day 1, individual subjects, read-out: AUC Plasma): 8200 ng·h/mL
AUC (oral, 300 mg, Cohort 3 (300 mg QD), Day 15, Tlast = 6 hours, read-out: AUC Plasma): 4570 ng·h/mL
AUC (oral, 300 mg, Cohort 3 (300 mg QD), Day 15, individual subjects, read-out: AUC Plasma): 5820 ng·h/mL
AUC(0-t) (oral, 300 mg, 300 mg QD cohort, Day 1, geometric mean, read-out: AUClast, Geometric Mean): 9550 ng·h/mL
Cmax (oral, 300 mg, 300 mg QD cohort, Day 1, geometric mean, read-out: Cmax, Geometric Mean): 628 ng/mL
AUC(0-t) (oral, 300 mg, 300 mg QD cohort, Day 1, individual subjects, read-out: AUClast): 10200 ng·h/mL
Cmax (oral, 300 mg, 300 mg QD cohort, Day 1, individual subjects, read-out: Cmax): 727 ng/mL
Tmax (oral, 300 mg, 300 mg QD cohort, Day 1, individual subjects, read-out: Tmax): 8 h
half-life (oral, 300 mg, 300 mg QD cohort, Day 1, individual subjects, read-out: t1/2 (converted)): 17.3 h
AUC(0-t) (oral, 300 mg, 300 mg QD cohort, Day 1, median, read-out: AUClast, Median): 10200 ng·h/mL
Cmax (oral, 300 mg, 300 mg QD cohort, Day 1, median, read-out: Cmax, Median): 615 ng/mL
Tmax (oral, 300 mg, 300 mg QD cohort, Day 1, median, read-out: Tmax, Median): 8 h
AUC(0-t) (oral, 300 mg, 300 mg QD cohort, Day 15, individual subjects, read-out: AUClast): 5590 ng·h/mL
Cmax (oral, 300 mg, 300 mg QD cohort, Day 15, individual subjects, read-out: Cmax): 568 ng/mL
Tmax (oral, 300 mg, 300 mg QD cohort, Day 15, individual subjects, read-out: Tmax): 1 h
half-life (oral, 300 mg, 300 mg QD cohort, Day 15, individual subjects, read-out: t1/2 (converted)): 9.23 h
AUC(0-t) (po, 100 mg, 100 mg QD cohort, Day 1, geometric mean, read-out: AUClast, Geometric Mean): 2020 ng·h/mL
Cmax (po, 100 mg, 100 mg QD cohort, Day 1, geometric mean, read-out: Cmax, Geometric Mean): 148 ng/mL
half-life (po, 100 mg, 100 mg QD cohort, Day 1, geometric mean, read-out: t1/2, Geometric Mean (converted)): 13.1 h
half-life (po, 100 mg, 100 mg QD cohort, Day 1, individual subjects, read-out: t1/2 (converted)): 11.5 h
AUC(0-t) (po, 100 mg, 100 mg QD cohort, Day 1, median, read-out: AUClast, Median): 2280 ng·h/mL
Cmax (po, 100 mg, 100 mg QD cohort, Day 1, median, read-out: Cmax, Median): 187 ng/mL
